Structures are written as SMILES. Positions count from the first letter of the chain named.

Assay in all cases: E. coli hemG growth inhibition by herbicide, AtPPO1 variant
Common to all, as to assay type: cell-based
Common to all, as to details: read-out: percentage growth inhibition

Experiment [1] addresses T1, AtPPO1 E111F (Arabidopsis thaliana, UniProt P55826, E111F).
T1 construct: expressed in transfected cells; host or cells: E. coli BL21(DE3) hemG (hemG replaced by CmR), pET24a plasmid
T1 sequence (P55826 35-537 E111F): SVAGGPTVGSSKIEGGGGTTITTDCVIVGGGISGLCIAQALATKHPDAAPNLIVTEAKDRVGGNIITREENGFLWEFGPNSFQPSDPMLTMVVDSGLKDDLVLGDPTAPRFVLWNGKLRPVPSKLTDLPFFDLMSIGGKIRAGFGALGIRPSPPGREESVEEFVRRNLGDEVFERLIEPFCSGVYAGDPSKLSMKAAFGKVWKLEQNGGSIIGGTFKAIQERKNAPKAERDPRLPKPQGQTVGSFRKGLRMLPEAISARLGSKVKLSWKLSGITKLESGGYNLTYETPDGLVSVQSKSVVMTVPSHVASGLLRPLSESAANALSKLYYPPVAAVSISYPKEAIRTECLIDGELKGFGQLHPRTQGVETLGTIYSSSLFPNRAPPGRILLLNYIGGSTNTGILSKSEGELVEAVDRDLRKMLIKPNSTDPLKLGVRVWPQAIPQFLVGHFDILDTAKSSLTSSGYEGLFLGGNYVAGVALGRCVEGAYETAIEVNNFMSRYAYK
The method, boiled down:
(§1)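 AtPPO1 variants from a site-saturation library, codon-optimised and T7-driven in pET24a, were expressed in E. coli BL21(DE3) lacking hemG (hemG replaced by CmR). Growth in Terrific broth with 0.1 mM IPTG plus 6.25 ppm herbicide 0 or E, 0.78 ppm herbicide B, or DMSO was read as OD600 after 24 h at 37° C; inhibition was calculated against the DMSO culture.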

Experiment [2] has as its target T2, AtPPO1 K281N (Arabidopsis thaliana, UniProt P55826, K281N).
T2 construct: expressed in transfected cells; host or cells: E. coli BL21(DE3) hemG (hemG replaced by CmR), pET24a plasmid
T2 sequence (P55826 35-537 K281N): T1 sequence (P55826 35-537 E111F) with F77E, K247N
An outline of the steps:
as §1

For experiment [3], the target named is T3, AtPPO1 Q272H (Arabidopsis thaliana, UniProt P55826, Q272H).
T3 construct: expressed in transfected cells; host or cells: E. coli BL21(DE3) hemG (hemG replaced by CmR), pET24a plasmid
T3 sequence (P55826 35-537 Q272H): T1 sequence (P55826 35-537 E111F) with F77E, Q238H
The method, boiled down: as §1

In experiment [4] the target is T4, AtPPO1 Y361P (Arabidopsis thaliana, UniProt P55826, Y361P).
T4 construct: expressed in transfected cells; host or cells: E. coli BL21(DE3) hemG (pET24a, T7 promoter)
T4 sequence (P55826 35-537 Y361P): T1 sequence (P55826 35-537 E111F) with F77E, Y327P
The method, boiled down: as §1

In the case of `C#CCN1C(=O)C(F)(F)Oc2cc(F)c(-n3c(=O)n(C)c(=S)n(C)c3=O)cc21` [Herbicide B, trifludimoxazin], the inhibition (in general, the percentage by which the read-out fell short of the control) at 0.78 ppm in experiment [1] worked out at 27%; in experiment [2] it was 39%; in experiment [3] it was 27%; in experiment [4] it was 28%.
With `CCOC(=O)[C@]1(C)CC(c2cc(-n3c(=O)n(C)c(=S)n(C)c3=O)c(F)cc2Cl)=NO1` [Herbicide D, ethyl (5S)-3-[2-chloro-5-(3,5-dimethyl-2,6-dioxo-4-thioxo-1,3,5-triazinan-1-yl)-4-fluoro-phenyl]-5-methyl-4H-isoxazole-5-carboxylate], the inhibition at 6.25 ppm is 29% in experiment [1], 37% in experiment [2], 28% in experiment [3] and 36% in experiment [4].
On to `CC(C)N(C)S(=O)(=O)NC(=O)c1cc(-n2c(=O)cc(C(F)(F)F)n(C)c2=O)c(F)cc1Cl` [Herbicide E, saflufenacil], for which the inhibition at 6.25 ppm was 66% in experiment [1], 56% in experiment [2], 64% in experiment [3] and 38% in experiment [4].

Source of the values: patent publication US20260297542A1, “HERBICIDE RESISTANT PLANTS” (SYNGENTA CROP PROTECTION AG, priority 2023, published 2026).
